This note sets out measurements from patent publication US7858621B2 (Amorepacific Corporation, priority 2006, dated 2010).

Read-outs that look alike come from different tables or passages of the source.

For one data set, the target named is T1, vanilloid receptor (Rattus norvegicus, UniProt O35433).
T1 construct: DRG nerve cells from the primary culture of 2 days were equilibrated; endogenous in cells; host or cells: primary culture of dorsal root ganglion neurons from neonatal SD rats
The data set can be described thus: 45Ca influx test in cultured neonatal rat DRG neurons, inhibition of capsaicin response. Type of data set: cell-based. An outline of the steps: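 Neonatal SD rat DRG neurons, cultured 2 days with NGF (200 ng/ml) and Ara-C, were washed in HEPES (10 mM, pH 7.4)-buffered Ca/Mg-free HBSS. Test compound was added with capsaicin (final 0.5 μM) and 45Ca (10 μCi/ml) for 10 min at room temperature; 45Ca uptake counted by scintillation after SDS elution.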

Data set [1] can be described thus: Metabolic stability test in rat liver microsomes. In kind it is in vitro ADME. To be noted: 5 μg/mL, 0.5 mg/mL protein, 30 min incubation. On the procedure:
(§1) 1) Metabolic Stability Test
(§2) Diluted sample (final 5 μg/mL in 0.1 M potassium phosphate buffer, pH 7.4) was pre-incubated with cofactors (glucose-6-phosphate 3.3 mM, NADPH 1.3 mM, MgCl2 0.16 mM, glucose-6-phosphate dehydrogenase 0.4 U/mL final) and enzyme reaction was initiated with the addition of human intestinal (1 mg/mL protein) or rat liver microsomes (0.5 mg/mL protein). Reaction was terminated with 2× volume of cold acetonitrile after 1 min (initial point) or 30 min (reacted sample) incubation. In case of human intestinal microsomes, 2 hr reaction time was employed. Reaction mixture was undergone extraction in shaking bath over 20 min, after which resultant supernatant was separated by centrifugation. Area of parent compound peak was analyzed in the supernatant using HPLC-UV method and the extent of metabolism was shown as the decreased compound peak area (%) from initial point.

The nature of data set [2]: Metabolic stability test in human intestinal microsomes. To be noted: 5 μg/mL, 1 mg/mL protein, 2 hr reaction time. In kind it is in vitro ADME. The procedure:
as §1, §2

Data set [3] in a line: PK study in rats, single oral administration. Type of data set: in vivo. More on the design: AUC: concentration or dose not given beside the values. To be noted: rat, plasma. On the procedure: Pharmacokinetics of compounds in rats were analyzed using the following experiment. Rats were fasted overnight prior to administration and until approximately 4 hours after administration. Rats were given a single oral administration of compound at same dose. Administration volume was 10 ml/kg. Blood samples were collected from the retro-orbital sinus at various times over the following 7 hrs. Immediately after each collection, plasmas were separated from blood cells by centrifugation and stored at −20° C. until the analysis was performed. The plasma samples were analyzed using a reverse phase high-performance chromatography (HPLC) method.

[4] abbreviates: neonatal rat DRG neurons, capsaicin 0.5 μM, 45Ca influx, read-out: Antagonist Calcium Uptake Test (IC50).

T1 sequence (O35433 whole entry): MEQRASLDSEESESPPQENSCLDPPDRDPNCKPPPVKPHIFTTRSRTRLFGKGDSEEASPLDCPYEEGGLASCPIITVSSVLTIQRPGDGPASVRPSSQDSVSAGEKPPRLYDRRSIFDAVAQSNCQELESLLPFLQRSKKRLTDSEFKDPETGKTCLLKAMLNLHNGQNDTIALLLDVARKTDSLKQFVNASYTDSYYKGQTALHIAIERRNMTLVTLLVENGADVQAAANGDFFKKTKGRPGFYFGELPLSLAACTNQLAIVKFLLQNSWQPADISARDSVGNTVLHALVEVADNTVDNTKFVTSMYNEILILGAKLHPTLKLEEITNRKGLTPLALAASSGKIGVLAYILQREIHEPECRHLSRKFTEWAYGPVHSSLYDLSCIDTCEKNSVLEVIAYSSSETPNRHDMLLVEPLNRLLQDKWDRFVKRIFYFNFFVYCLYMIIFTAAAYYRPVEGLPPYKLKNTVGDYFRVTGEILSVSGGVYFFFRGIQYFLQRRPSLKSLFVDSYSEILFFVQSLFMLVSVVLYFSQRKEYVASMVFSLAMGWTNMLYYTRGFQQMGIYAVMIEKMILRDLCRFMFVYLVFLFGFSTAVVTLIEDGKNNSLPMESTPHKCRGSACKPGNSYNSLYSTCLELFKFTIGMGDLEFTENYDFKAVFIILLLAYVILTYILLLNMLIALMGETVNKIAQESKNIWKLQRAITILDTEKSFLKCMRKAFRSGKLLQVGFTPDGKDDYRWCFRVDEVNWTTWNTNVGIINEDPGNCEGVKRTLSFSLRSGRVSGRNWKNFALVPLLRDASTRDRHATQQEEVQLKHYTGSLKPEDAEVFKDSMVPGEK

With `C#Cc1cc(CNC(=O)/C=C/c2ccc(C(F)(F)F)nc2NC(C)C)cc(F)c1NS(C)(=O)=O` [Example 100, N-(3-Ethynyl-5-fluoro-4-methanesulfonylamino-benzyl)-3-(2-isopropylamino-6-trifluoromethyl-pyridin-3-yl)-acrylamide], the IC50 on vanilloid receptor (setting [4]) amounted to 69 nM. Also, in data set [1], the “Stability RLM (% metabolized in rat liver microsomes)” value was 3.4%. In data set [2], the “Stability HIM (% metabolized in human intestinal microsomes)” value amounted to 0%. In data set [3], the AUC is 17400 ng·h/mL, the Cmax was 2530 ng/mL, the Tmax stood at 3 h and the half-life is 3.21 h.

Take `C=Cc1cc(CNC(=O)/C=C/c2ccc(C(F)(F)F)nc2N2CCOCC2)cc(F)c1NS(C)(=O)=O` [Example 281, N-(3-Ethenyl-5-fluoro-4-methanesulfonylamino-benzyl)-3-(2-morpholin-1-yl-6-trifluoromethyl-pyridin-3-yl)-acrylamide]: the IC50 on vanilloid receptor (setting [4]) came to 220 nM. Moreover, the “Stability RLM (% metabolized in rat liver microsomes)” value in data set [1] is given as 0.5%. In addition, in data set [2], the “Stability HIM (% metabolized in human intestinal microsomes)” value is recorded as 0%. Besides, in data set [3], the area under the curve (AUC) is 654 ng·h/mL, the peak level (Cmax) was 215 ng/mL, the time of peak concentration (Tmax) turned out to be 2 h and the half-life is 1.26 h.

In the case of `C#Cc1cc(CNC(=O)/C=C/c2ccc(C(F)(F)F)nc2OC)cc(F)c1NS(C)(=O)=O` [Example 42, N-(3-Ethynyl-5-fluoro-4-methanesulfonylamino-benzyl)-3-(2-methoxy-6-trifluoromethyl-pyridin-3-yl)-acrylamide], on vanilloid receptor (setting [4]), the IC50 is 96 nM. Also, in data set [1], the “Stability RLM (% metabolized in rat liver microsomes)” value turned out to be 17.1%. In data set [2], the “Stability HIM (% metabolized in human intestinal microsomes)” value was 17.1%.

For the molecule `C#Cc1cc(CNC(=O)/C=C/c2ccc(C(C)(C)C)cc2N2CCOCC2)cc(F)c1NS(C)(=O)=O` [drawing 334, reference compound], on vanilloid receptor (Table 2, unit inferred, read-out: IC50), the IC50 turned out to be 860 nM. Also, the “Stability RLM (% metabolized in rat liver microsomes)” value in data set [1] turned out to be 12.8%. The “Stability HIM (% metabolized in human intestinal microsomes)” value in data set [2] was found to be 54.0%.

On to `CCCc1nc(C(F)(F)F)ccc1/C=C/C(=O)NCc1ccc(NS(C)(=O)=O)c(Cl)c1` [Example 253, N-(3-Chloro-4-methanesulfonylamino-benzyl)-3-(2-propyl-6-trifluoromethyl)-pyridin-3-yl-acrylamide], for which, at vanilloid receptor (setting [4]), the IC50 is 500 nM. Also, in data set [1], the “Stability RLM (% metabolized in rat liver microsomes)” value stood at 0%. Also, the “Stability HIM (% metabolized in human intestinal microsomes)” value in data set [2] worked out at 3.2%.

For the molecule `CCCCNc1nc(C(F)(F)F)ccc1/C=C/C(=O)NCc1cc(C)c(NS(C)(=O)=O)c(F)c1` [Example 188, N-(3-Fluoro-4-methanesulfonylamino-5-methyl-benzyl)-3-(2-butylamino-6-trifluoromethyl-pyridin-3-yl)-acrylamide], the IC50 at vanilloid receptor (setting [4]) amounted to 87 nM. Besides, the “Stability RLM (% metabolized in rat liver microsomes)” value in data set [1] worked out at 2.7%. The “Stability HIM (% metabolized in human intestinal microsomes)” value in data set [2] is 1.6%.

Turning to `C#Cc1cc(CNC(=O)/C=C/c2ccc(C(F)(F)F)nc2N2CCOCC2)cc(F)c1NS(C)(=O)=O` [Example 12, N-(3-Ethynyl-5-fluoro-4-methanesulfonylamino-benzyl)-3-(2-morpholin-4-yl-6-trifluoromethyl-pyridin-3-yl)-acrylamide], on vanilloid receptor (setting [4]), the half-maximal inhibitory concentration (IC50) turned out to be 260 nM. In addition, the “Stability RLM (% metabolized in rat liver microsomes)” value in data set [1] was found to be 11.7%. Also, the “Stability HIM (% metabolized in human intestinal microsomes)” value in data set [2] is listed as 12.0%. For the same molecule, in data set [3], the AUC was 3240 ng·h/mL, the maximum concentration (Cmax) came out at 723 ng/mL, the Tmax turned out to be 2.38 h and the half-life was 1.7 h.

The IC50 is the concentration needed to halve the response being measured. The term AUC denotes the area under the concentration-time curve, a measure of exposure. For orientation: Cmax means the maximum level reached in the sampled fluid or tissue. Usually Tmax stands for the time at which the peak concentration occurs. In general, half-life refers to the time in which the quantity being followed falls by half.
